Drawing on US10988477B2 (Merck Patent GmbH, priority 2018, dated 2021), this text covers Ki and IC50 for 28 compounds.

Experiment [1] deals with GCN2 kinase (Homo sapiens, UniProt Q9P2K8). In words: GCN2 enzyme inhibition assay (Transcreener ADP2 fluorescence polarization). Type of experiment: biochemical. The note with it: 280 μM ATP, 4 nM GCN2 kinase. Put shortly: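 4 nM GCN2 + 200 μM (RS)7 + compound (0–8 μM), 10 min preinc.; start with ATP (280 μM final); 1 h, 25 °C; pH 7.5 Tris/NaCl/MgCl2/DTT; ADP FP readout; IC50, Ki(app) via tight-binding fit.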
(In general: In fluorescence polarisation assays a small probe gives low polarisation when free and higher when bound to something large.)

The target of experiment [2] is intracellular GCN2 (phosphorylation of the GCN2 substrate eIF2α) (Homo sapiens, UniProt Q9P2K8). In words: GCN2 cellular inhibition assay (AlphaScreen SureFire P-eIF2α Ser51, borrelidin-treated U2OS cells). The format is cell-based. In a few lines:
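Phospho-eIF2α (Ser51) in lysates was quantified by AlphaScreen SureFire after a 1 h, 37 °C treatment of U2OS cells with 10 μM borrelidin and compound at 4-fold dilutions starting from 40 μM final. Inhibition expressed in percent against wells stimulated by borrelidin alone.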

Where [3] appears, read: compounds of Formula II, biomarker assay, phosphorylated eIF2α Ser51 in borrelidin-treated U2OS cells.
[4] abbreviates: compounds of Formula III, U2OS cells, 10 μM borrelidin, 1 h, read-out: GCN2 Biomarker (IC50).

Where two headings read alike, the source gives them in different places.

A word on the Ki: it is the equilibrium dissociation constant of an inhibitor or competing ligand from its target. One may read the IC50 as the midpoint of a concentration-inhibition curve.

Chain of GCN2 kinase (Q9P2K8 whole entry): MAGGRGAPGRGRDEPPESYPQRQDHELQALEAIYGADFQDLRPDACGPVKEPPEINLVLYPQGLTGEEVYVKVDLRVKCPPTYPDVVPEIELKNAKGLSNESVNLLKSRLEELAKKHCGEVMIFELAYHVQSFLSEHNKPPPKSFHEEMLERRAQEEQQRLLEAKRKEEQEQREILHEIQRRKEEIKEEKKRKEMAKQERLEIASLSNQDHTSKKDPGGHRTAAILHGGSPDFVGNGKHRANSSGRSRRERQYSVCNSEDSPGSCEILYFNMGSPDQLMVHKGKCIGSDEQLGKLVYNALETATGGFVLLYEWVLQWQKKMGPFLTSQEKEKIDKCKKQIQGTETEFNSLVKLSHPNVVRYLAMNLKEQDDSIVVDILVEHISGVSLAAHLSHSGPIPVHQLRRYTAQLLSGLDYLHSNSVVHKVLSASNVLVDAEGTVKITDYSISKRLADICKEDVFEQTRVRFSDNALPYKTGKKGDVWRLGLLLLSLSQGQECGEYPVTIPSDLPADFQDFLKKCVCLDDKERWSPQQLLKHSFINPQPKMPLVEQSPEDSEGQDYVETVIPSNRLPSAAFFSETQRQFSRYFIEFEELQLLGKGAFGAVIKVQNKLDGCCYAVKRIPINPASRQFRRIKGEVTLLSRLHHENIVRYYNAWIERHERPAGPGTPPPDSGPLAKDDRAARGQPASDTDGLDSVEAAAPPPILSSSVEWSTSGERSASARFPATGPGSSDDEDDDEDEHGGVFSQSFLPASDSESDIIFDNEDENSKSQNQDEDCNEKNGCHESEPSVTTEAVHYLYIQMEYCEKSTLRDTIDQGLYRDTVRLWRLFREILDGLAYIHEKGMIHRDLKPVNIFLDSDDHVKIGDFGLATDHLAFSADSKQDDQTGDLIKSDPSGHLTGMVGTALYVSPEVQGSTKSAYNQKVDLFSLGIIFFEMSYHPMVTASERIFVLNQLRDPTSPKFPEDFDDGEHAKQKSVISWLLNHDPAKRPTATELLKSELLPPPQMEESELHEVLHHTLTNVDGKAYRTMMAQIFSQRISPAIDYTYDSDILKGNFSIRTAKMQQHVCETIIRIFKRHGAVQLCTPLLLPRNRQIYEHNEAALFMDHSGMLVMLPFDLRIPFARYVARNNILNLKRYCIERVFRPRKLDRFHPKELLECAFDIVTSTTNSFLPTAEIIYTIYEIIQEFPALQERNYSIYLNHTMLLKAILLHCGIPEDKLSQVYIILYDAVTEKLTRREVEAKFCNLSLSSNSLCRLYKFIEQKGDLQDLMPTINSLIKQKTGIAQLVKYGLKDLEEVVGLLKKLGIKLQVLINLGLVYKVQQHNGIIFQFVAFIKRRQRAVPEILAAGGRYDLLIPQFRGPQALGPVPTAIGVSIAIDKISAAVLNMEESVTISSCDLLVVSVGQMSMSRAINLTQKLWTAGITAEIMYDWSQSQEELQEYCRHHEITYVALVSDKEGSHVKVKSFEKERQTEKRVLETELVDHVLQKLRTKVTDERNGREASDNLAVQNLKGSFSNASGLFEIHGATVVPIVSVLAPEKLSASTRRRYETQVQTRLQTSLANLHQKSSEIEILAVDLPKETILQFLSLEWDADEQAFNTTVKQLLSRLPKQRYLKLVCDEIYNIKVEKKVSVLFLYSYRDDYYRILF
Chain of intracellular GCN2 (phosphorylation of the GCN2 substrate eIF2α) (Q9P2K8 whole entry): as above

Compound `CC1CC(N=S(C)(C)=O)CN(c2cc(-c3cnc4ccc(C(F)F)nn34)ccn2)C1` (centres unmarked) [II-716, ((1-(4-(6-(Difluoromethyl)imidazo[1,2-b]pyridazin-3-yl)pyridin-2-yl)-5-methylpiperidin-3-yl)imino)dimethyl-λ^6-sulfanone] returned an inhibitory constant (Ki) in experiment [1] (compounds of Formula II) of less than 0.01 µM. For the same compound, the IC50 in experiment [2] (setting [3]) was less than 0.5 µM.

In experiment [1] (compounds of Formula II), `CC1CC(C(=O)O)C(C)N(c2cc(-c3cnc4ccc(C(F)(F)F)nn34)ncn2)C1` (centres unmarked) [II-721, 2,5-Dimethyl-1-[6-[6-(trifluoromethyl)imidazo[1,2-b]pyridazin-3-yl]pyrimidin-4-yl]piperidine-3-carboxylic acid] showed a Ki of 0.01 to 1 µM. The IC50 in experiment [2] (setting [3]) was in the range of 0.5 to 5 µM.

`CC1CC(N=S(C)(C)=O)CN(c2cc(-c3cnc4ccc(C(N)=O)nn34)ncn2)C1` (centres unmarked) [II-726, 3-(6-(3-((Dimethyl(oxo)-λ^6-sulfanylidene)amino)-5-methylpiperidin-1-yl)pyrimidin-4-yl)imidazo[1,2-b]pyridazine-6-carboxamide] registered a Ki in experiment [1] (compounds of Formula II) of 0.01 to 1 µM. Also, the half-maximal inhibitory concentration (IC50) in experiment [2] (setting [3]) is greater than 5 µM.

With `NC(=O)c1ccc2ncc(-c3cc(N4CCN5C(=O)CCCC5C4)ncn3)n2n1` (centres unmarked) [II-727, 3-[6-(6-Oxo-3,4,7,8,9,9a-hexahydro-1H-pyrido[1,2-a]pyrazin-2-yl)pyrimidin-4-yl]imidazo[1,2-b]pyridazine-6-carboxamide], in experiment [1] (compounds of Formula II), the inhibitory constant (Ki) was 0.01 to 1 µM. The same compound returned an IC50 in experiment [2] (setting [3]) greater than 5 µM.

`CC1CN(c2cc(-c3cnc4ccc(C(N)=O)nn34)ncn2)C(C)C(c2cn[nH]c2)N1` (centres unmarked) [II-728, 3-[6-[2,5-Dimethyl-3-(1H-pyrazol-4-yl)piperazin-1-yl]pyrimidin-4-yl]imidazo[1,2-b]pyridazine-6-carboxamide]: in experiment [1] (compounds of Formula II), the inhibitory constant (Ki) lay in the range of 0.01 to 1 µM. In experiment [2] (setting [3]), this compound returned a half-maximal inhibitory concentration (IC50) greater than 5 µM.

As for `CS(=O)(=O)NCC1CCCN(c2cc(-c3cnc4ccc(C(F)F)nn34)c(F)cn2)C1` (centres unmarked) [II-729, N-((1-(4-(6-(Difluoromethyl)imidazo[1,2-b]pyridazin-3-yl)-5-fluoropyridin-2-yl)piperidin-3-yl)methyl)methanesulfonamide], the Ki in experiment [1] (compounds of Formula II) is less than 0.01 µM. The compound further had a 50% inhibitory concentration (IC50) in experiment [2] (setting [3]) of 0.5 to 5 µM.

`CS(=O)(=O)NCC1CCCN(c2cc(-c3cnc4ccc(C(F)F)nn34)c(Cl)cn2)C1` (centres unmarked) [II-730, N-((1-(5-Chloro-4-(6-(difluoromethyl)imidazo[1,2-b]pyridazin-3-yl)pyridin-2-yl)piperidin-3-yl)methyl)methanesulfonamide] came in with a Ki in experiment [1] (compounds of Formula II) of 0.01 to 1 µM. In experiment [2] (setting [3]), this compound gave an IC50 of 0.5 to 5 µM.

Consider `CC(=O)N1CCN(c2cccc(-c3cnc4ccc(C(F)F)nn34)n2)CC1` [II-731, 1-(4-(6-(6-(difluoromethyl)imidazo[1,2-b]pyridazin-3-yl)pyridin-2-yl)piperazin-1-yl)ethan-1-one], for which, in experiment [1] (compounds of Formula II), the Ki is greater than 1 µM. The same compound returned a 50% inhibitory concentration (IC50) in experiment [2] (setting [3]) greater than 5 µM.

As to `CS(=O)(=O)NCC1CN(c2cc(-c3cnc4cccnn34)ccn2)CCO1` (centres unmarked) [II-732, N-((4-(4-(imidazo[1,2-b]pyridazin-3-yl)pyridin-2-yl)morpholin-2-yl)methyl)methanesulfonamide], the Ki in experiment [1] (compounds of Formula II) is greater than 1 µM. The compound also had an IC50 in experiment [2] (setting [3]) greater than 5 µM.

In experiment [1] (compounds of Formula II), `Cc1cnc(N2CCCC(CNS(C)(=O)=O)C2)cc1-c1cnc2ccc(C(F)F)nn12` (centres unmarked) [II-733, N-((1-(4-(6-(difluoromethyl)imidazo[1,2-b]pyridazin-3-yl)-5-methylpyridin-2-yl)piperidin-3-yl)methyl)methanesulfonamide] had an inhibitory constant (Ki) greater than 1 µM. The 50% inhibitory concentration (IC50) in experiment [2] (setting [3]) is greater than 5 µM.

With `CC(=O)NC1CCN(c2cc(-c3cnc4ccc(-c5cccnc5)nn34)ccn2)CC1` [II-735, N-(1-(4-(6-(pyridin-3-yl)imidazo[1,2-b]pyridazin-3-yl)pyridin-2-yl)piperidin-4-yl)acetamide], the inhibition constant (Ki) in experiment [1] (compounds of Formula II) is greater than 1 µM. The compound further yielded an IC50 in experiment [2] (setting [3]) greater than 5 µM.

`CC(=O)N1CCN(c2cc(-c3cnc4ccc(N5CCC(N)C5)nn34)ccn2)CC1` (centres unmarked) [II-736, 1-(4-(4-(6-(3-aminopyrrolidin-1-yl)imidazo[1,2-b]pyridazin-3-yl)pyridin-2-yl)piperazin-1-yl)ethan-1-one] had a Ki in experiment [1] (compounds of Formula II) greater than 1 µM. In addition, the IC50 in experiment [2] (setting [3]) was greater than 5 µM.

As to `CC(=O)N1CCN(c2cc(-c3cnc4ccc(-c5cccnc5)nn34)ccn2)CC1` [II-737, 1-(4-(4-(6-(pyridin-3-yl)imidazo[1,2-b]pyridazin-3-yl)pyridin-2-yl)piperazin-1-yl)ethan-1-one], the Ki in experiment [1] (compounds of Formula II) is greater than 1 µM. For the same compound, the concentration for half-maximal inhibition (IC50) in experiment [2] (setting [3]) was greater than 5 µM.

Take `CC(=O)N1CCN(c2cc(-c3cnc4ccc(N5CCOCC5)nn34)ccn2)CC1` [II-738, 1-(4-(4-(6-morpholinoimidazo[1,2-b]pyridazin-3-yl)pyridin-2-yl)piperazin-1-yl)ethan-1-one]: the Ki in experiment [1] (compounds of Formula II) is greater than 1 µM. This compound also registered an IC50 in experiment [2] (setting [3]) greater than 5 µM.

In experiment [1] (compounds of Formula II), `Cc1noc([C@@H]2CN(c3cc(-c4cnc5ccc(C(F)(F)F)nn45)ccn3)C[C@H](C)O2)n1` [II-739] yielded a Ki of 0.01 to 1 µM. This compound gave an IC50 in experiment [2] (setting [3]) of less than 0.5 µM.

The compound `FC(F)(F)c1ccc2ncc(-c3ccnc(N4CCCC(c5c[nH]cn5)C4)c3)n2n1` (centres unmarked) [II-740] came in with a Ki in experiment [1] (compounds of Formula II) of less than 0.01 µM. In experiment [2] (setting [3]), this compound gave a 50% inhibitory concentration (IC50) of less than 0.5 µM.

In turn, `FC(F)(F)c1ccc2ncc(-c3ccnc(N4CCCC(c5c[nH]cn5)C4)c3)n2n1` (centres unmarked) [II-741] gave a Ki in experiment [1] (compounds of Formula II) of less than 0.01 µM. In addition, in experiment [2] (setting [3]), the IC50 is less than 0.5 µM.

For the compound `C[C@@H]1[C@H](CNS(C)(=O)=O)N(C2CC2)CCN1c1cc(-c2cnc3ccc(C(F)F)nn23)ncn1` [II-753, N-(((2S,3R)-1-cyclopropyl-4-(6-(6-(difluoromethyl)imidazo[1,2-b]pyridazin-3-yl)pyrimidin-4-yl)-3-methylpiperazin-2-yl)methyl)methanesulfonamide], the figures for the IC50 in experiment [1] (compounds of Formula II) and in experiment [2] (setting [3]) were 0.01 to 1 µM and 0.5 to 5 µM, respectively.

For the compound `CC1CC(N=S(C)(C)=O)CN(c2cc(-c3cnc4ccc(C(F)(F)F)nn34)ncn2)C1` (centres unmarked) [II-757, dimethyl((5-methyl-1-(6-(6-(trifluoromethyl)imidazo[1,2-b]pyridazin-3-yl)pyrimidin-4-yl)piperidin-3-yl)imino)-16-sulfanone], the values for the IC50 in experiment [1] (compounds of Formula II) and in experiment [2] (setting [3]) were 0.01 to 1 µM and less than 0.5 µM, respectively.

As to `Cc1nn(C)cc1[C@@H]1CN(c2cc(-c3cnc4ccc(C(F)(F)F)nn34)ncn2)C[C@H](C)O1` [II-759, (2R,6S)-2-(1,3-dimethyl-1H-pyrazol-4-yl)-6-methyl-4-(6-(6-(trifluoromethyl)imidazo[1,2-b]pyridazin-3-yl)pyrimidin-4-yl)morpholine], the half-maximal inhibitory concentration (IC50) is 0.01 to 1 µM in experiment [1] (compounds of Formula II) and greater than 5 µM in experiment [2] (setting [3]).

For `Cc1[nH]ncc1C1CN(c2cc(-c3cnc4ccc(C(F)(F)F)nn34)ncn2)CC(C)O1` (centres unmarked) [II-762, 2-methyl-6-(5-methyl-1H-pyrazol-4-yl)-4-(6-(6-(trifluoromethyl)imidazo[1,2-b]pyridazin-3-yl)pyrimidin-4-yl)morpholine], the IC50 fell in the range of 0.01 to 1 µM in experiment [1] (compounds of Formula II) and 0.5 to 5 µM in experiment [2] (setting [3]).

For the compound `Cc1[nH]ncc1[C@H]1CN(c2cc(-c3cnc4ccc(C(F)(F)F)nn34)ncn2)C[C@H](C)O1` [II-765, (2S,6S)-2-methyl-6-(5-methyl-1H-pyrazol-4-yl)-4-(6-(6-(trifluoromethyl)imidazo[1,2-b]pyridazin-3-yl)pyrimidin-4-yl)morpholine], the values for the concentration for half-maximal inhibition (IC50) in experiment [1] (compounds of Formula II) and in experiment [2] (setting [3]) were 0.01 to 1 µM and greater than 5 µM, respectively.

Consider `Cc1[nH]ncc1[C@@H]1CN(c2cc(-c3cnc4ccc(C(F)(F)F)nn34)ncn2)C[C@@H](C)O1` [II-766, (2R,6R)-2-methyl-6-(5-methyl-1H-pyrazol-4-yl)-4-(6-(6-(trifluoromethyl)imidazo[1,2-b]pyridazin-3-yl)pyrimidin-4-yl)morpholine], for which the figures for the IC50 in experiment [1] (compounds of Formula II) and in experiment [2] (setting [3]) were 0.01 to 1 µM and greater than 5 µM, respectively.

In the case of `Cc1[nH]ncc1[C@@H]1CN(c2cc(-c3cnc4ccc(C(F)(F)F)nn34)ncn2)C[C@H](C)O1` [II-767, (2S,6R)-2-methyl-6-(5-methyl-1H-pyrazol-4-yl)-4-(6-(6-(trifluoromethyl)imidazo[1,2-b]pyridazin-3-yl)pyrimidin-4-yl)morpholine], the concentration for half-maximal inhibition (IC50) was 0.01 to 1 µM in experiment [1] (compounds of Formula II) and less than 0.5 µM in experiment [2] (setting [3]).

As to `C[C@H]1[C@H](CNS(C)(=O)=O)N(C2CC2)CCN1c1cc(-c2cnc3ccc(C(F)F)nn23)ncn1` [II-769, N-(((2S,3S)-1-cyclopropyl-4-(6-(6-(difluoromethyl)imidazo[1,2-b]pyridazin-3-yl)pyrimidin-4-yl)-3-methylpiperazin-2-yl)methyl)methanesulfonamide], the IC50 in experiment [1] (compounds of Formula II) lay within 0.01 to 1 µM; in experiment [2] (setting [3]) it was 0.5 to 5 µM.

Consider `C[C@@H]1[C@@H](CNS(C)(=O)=O)N(C2CC2)CCN1c1cc(-c2cnc3ccc(C(F)F)nn23)ncn1` [II-770, N-(((2R,3R)-1-cyclopropyl-4-(6-(6-(difluoromethyl)imidazo[1,2-b]pyridazin-3-yl)pyrimidin-4-yl)-3-methylpiperazin-2-yl)methyl)methanesulfonamide], for which the IC50 in experiment [1] (compounds of Formula II) was in the range of 0.01 to 1 µM; in experiment [2] (setting [3]) it was 0.5 to 5 µM.

As for `CC(=O)N1CCN(c2cc(-c3cnn4ccc(C(F)F)nc34)ncn2)CC1` [III-1, 1-[4-[6-[5-(Difluoromethyl)pyrazolo[1,5-a]pyrimidin-3-yl]pyrimidin-4-yl]piperazin-1-yl]ethanone], the inhibitory constant (Ki) in experiment [1] (compounds of Formula III) lay within 0.01 to 1 µM. Besides, the IC50 in experiment [2] (setting [4]) was greater than 5 µM.

For the compound `CS(=O)(=O)NCC1CCCN(c2cc(-c3cnn4ccc(C(F)F)nc34)ncn2)C1` (centres unmarked) [III-2, N-[[1-[6-[5-(Difluoromethyl)pyrazolo[1,5-a]pyrimidin-3-yl]pyrimidin-4-yl]-3-piperidyl]methyl]methanesulfonamide], the Ki in experiment [1] (compounds of Formula III) is less than 0.01 µM. Also, the IC50 in experiment [2] (setting [4]) was less than 0.5 µM.
